According to ChEMBL document CHEMBL1148463, “Gamma-amino-substituted analogues of 1-[(S)-2,4-diaminobutanoyl]piperidine as highly potent and selective dipeptidyl peptidase II inhibitors” (J Med Chem, 2004):

Tests used:
Dipeptidyl peptidase 4 = Dipeptidyl peptidase 4 (Homo sapiens, UniProt P27487); experiment: Inhibition of human Dipeptidylpeptidase IV (DPP IV)
[1] = molecular target: Dipeptidyl peptidase II and dipeptidyl peptidase IV (DPP2 and DPP4) (Homo sapiens) (UniProt P27487+Q9UHL4); experiment: Ratio of IC50 for DPP IV to that of IC50 for DPP II; assay type: protein assay
Dipeptidyl peptidase 2 = Dipeptidyl peptidase 2 (Homo sapiens, UniProt Q9UHL4); experiment: Inhibition of human Dipeptidylpeptidase II (DPP II)
[2] = Inhibition of human Dipeptidylpeptidase II (DPP II)

Sequence of Dipeptidyl peptidase 4 (P27487 whole entry): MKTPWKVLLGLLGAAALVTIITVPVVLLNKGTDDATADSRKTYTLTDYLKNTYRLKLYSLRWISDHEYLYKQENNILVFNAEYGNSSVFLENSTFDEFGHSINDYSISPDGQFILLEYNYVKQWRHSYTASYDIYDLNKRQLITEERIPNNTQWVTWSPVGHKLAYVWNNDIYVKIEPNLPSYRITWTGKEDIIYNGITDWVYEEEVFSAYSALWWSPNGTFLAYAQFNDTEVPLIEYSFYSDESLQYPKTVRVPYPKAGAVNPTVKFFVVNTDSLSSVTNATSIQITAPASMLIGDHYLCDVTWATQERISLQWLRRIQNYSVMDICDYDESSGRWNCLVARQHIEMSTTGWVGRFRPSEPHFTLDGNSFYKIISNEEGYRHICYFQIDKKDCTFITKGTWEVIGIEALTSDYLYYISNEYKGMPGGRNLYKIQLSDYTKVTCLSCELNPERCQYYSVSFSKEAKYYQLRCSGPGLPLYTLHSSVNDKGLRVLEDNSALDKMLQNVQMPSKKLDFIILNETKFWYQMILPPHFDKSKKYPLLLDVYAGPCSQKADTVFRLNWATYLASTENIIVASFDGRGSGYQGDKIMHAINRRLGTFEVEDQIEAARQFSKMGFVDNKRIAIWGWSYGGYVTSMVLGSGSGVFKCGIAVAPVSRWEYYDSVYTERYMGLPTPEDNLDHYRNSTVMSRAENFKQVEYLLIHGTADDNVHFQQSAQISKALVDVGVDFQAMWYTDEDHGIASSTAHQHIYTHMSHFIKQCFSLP

## NCC[C@H](N=C(N)N)C(=O)N1CCCCC1
Dipeptidyl peptidase 4
  IC50: > 1000 µM
[1]
  SI: > 140
Dipeptidyl peptidase 2
  IC50: 7.4 nM

## NCC[C@H](NCc1ccccc1)C(=O)N1CCCCC1
Dipeptidyl peptidase 4
  IC50: > 1000 µM
[1]
  SI: > 80
Dipeptidyl peptidase 2
  IC50: 12.5 nM

## N[C@@H](CCNCc1ccc2ccccc2c1)C(=O)N1CCCCC1
Dipeptidyl peptidase 4
  IC50: 179 µM
[1]
  SI: 160000
Dipeptidyl peptidase 2
  IC50: 1.1 nM

## N#Cc1ccc(NCC[C@H](N)C(=O)N2CCCCC2)nc1
Dipeptidyl peptidase 4
  IC50: 205 µM
Dipeptidyl peptidase 2
  IC50: 4.6 nM

## COc1cccc(CNCC[C@H](N)C(=O)N2CCCCC2)c1
Dipeptidyl peptidase 4
  IC50: 250 µM
[1]
  SI: 140000
Dipeptidyl peptidase 2
  IC50: 1.77 nM

## N[C@@H](CCNCC1CCCCC1)C(=O)N1CCCCC1
Dipeptidyl peptidase 4
  IC50: 496 µM
[1]
  SI: 450000
Dipeptidyl peptidase 2
  IC50: 1.1 nM

## N[C@@H](CCNCc1cccc(Cl)c1)C(=O)N1CCCCC1
Dipeptidyl peptidase 4
  IC50: 186 µM
[1]
  SI: 140000
Dipeptidyl peptidase 2
  IC50: 1.34 nM

## COc1ccc(CNCC[C@H](N)C(=O)N2CCCCC2)cc1
Dipeptidyl peptidase 4
  IC50: 417 µM
[1]
  SI: 630000
Dipeptidyl peptidase 2
  IC50: 0.66 nM

## CN[C@@H](CCNCc1ccc(Cl)cc1)C(=O)N1CCCCC1
Dipeptidyl peptidase 4
  IC50: > 500 µM
[1]
  SI: > 2700
Dipeptidyl peptidase 2
  IC50: 187 nM

## N[C@@H](CCNCc1ccc(Cl)cc1)C(=O)N1CCCC(O)C1 (stereo partly drawn)
Dipeptidyl peptidase 4
  IC50: > 1000 µM
[1]
  SI: > 20000
Dipeptidyl peptidase 2
  IC50: 54.7 nM

## CN(CC[C@H](N)C(=O)N1CCCCC1)Cc1ccc(Cl)cc1
Dipeptidyl peptidase 4
  IC50: 196 µM
[1]
  SI: 890000
Dipeptidyl peptidase 2
  IC50: 0.22 nM

## N[C@@H](CCNc1ncccc1[N+](=O)[O-])C(=O)N1CCCCC1
Dipeptidyl peptidase 4
  IC50: 56 µM
Dipeptidyl peptidase 2
  IC50: 23.5 nM

## CC1CCCN(C(=O)[C@@H](N)CCNCc2ccc(Cl)cc2)C1 (stereo partly drawn)
Dipeptidyl peptidase 4
  IC50: > 500 µM
[1]
  SI: > 440000
Dipeptidyl peptidase 2
  IC50: 1.13 nM

## N[C@@H](CCNCc1ccc(Cl)cc1)C(=O)N1CCCC(F)C1 (stereo partly drawn)
Dipeptidyl peptidase 4
  IC50: 500 µM
Dipeptidyl peptidase 2
  IC50: 0.62 nM

## N[C@@H](CCNCCCc1ccccc1)C(=O)N1CCCCC1
Dipeptidyl peptidase 4
  IC50: > 500 µM
[1]
  SI: > 260000
Dipeptidyl peptidase 2
  IC50: 1.91 nM

## NCC[C@H](N)C(=O)N1CCCCC1
Dipeptidyl peptidase 4
  IC50: > 1000 µM
[1]
  SI: > 7600
[2]
  IC50: 130 nM

## N[C@@H](CCNC1CCCCC1)C(=O)N1CCCCC1
Dipeptidyl peptidase 4
  IC50: > 1000 µM
[1]
  SI: > 50000
Dipeptidyl peptidase 2
  IC50: 18.6 nM

## COc1ccc(CNCC[C@H](N)C(=O)N2CCCCC2)c(OC)c1
Dipeptidyl peptidase 4
  IC50: > 500 µM
[1]
  SI: > 180000
Dipeptidyl peptidase 2
  IC50: 2.7 nM

## N[C@@H](CCNCc1ccc(Cl)cc1)C(=O)N1CCCCC1
Dipeptidyl peptidase 4
  IC50: 165 µM
[1]
  SI: 340000
Dipeptidyl peptidase 2
  IC50: 0.48 nM

## N#CC1CCCCN1C(=O)[C@@H](N)CCNCc1ccc(Cl)cc1 (stereo partly drawn)
Dipeptidyl peptidase 4
  IC50: 13 µM
[1]
  SI: 2000
Dipeptidyl peptidase 2
  IC50: 6.5 nM

## NCC[C@H](NC1CCNCC1)C(=O)N1CCCCC1
Dipeptidyl peptidase 4
  IC50: > 1000 µM
[1]
  SI: > 59
Dipeptidyl peptidase 2
  IC50: 17 nM

## N[C@@H](CCNCc1ccc(OCc2ccccc2)cc1)C(=O)N1CCCCC1
Dipeptidyl peptidase 4
  IC50: 192 µM
[1]
  SI: 470000
Dipeptidyl peptidase 2
  IC50: 0.41 nM

## N[C@@H](CCNCc1cccc2ccccc12)C(=O)N1CCCCC1
Dipeptidyl peptidase 4
  IC50: 301 µM
[1]
  SI: 230000
Dipeptidyl peptidase 2
  IC50: 1.31 nM

## N=C(N)NCC[C@H](N)C(=O)N1CCCCC1
Dipeptidyl peptidase 4
  IC50: 545 µM
Dipeptidyl peptidase 2
  IC50: 1.8 nM

## N[C@@H](CCNCCc1ccccc1)C(=O)N1CCCCC1
Dipeptidyl peptidase 4
  IC50: 188 µM
[1]
  SI: 210000
Dipeptidyl peptidase 2
  IC50: 0.9 nM

## N[C@@H](CCNCc1ccc(Cl)cc1)C(=O)N1CCC(O)CC1
Dipeptidyl peptidase 4
  IC50: > 1000 µM
[1]
  SI: > 9000
Dipeptidyl peptidase 2
  IC50: 113 nM

## N[C@@H](CCN(Cc1ccc(Cl)cc1)Cc1ccc(Cl)cc1)C(=O)N1CCCCC1
Dipeptidyl peptidase 4
  IC50: > 125 µM
[1]
  SI: > 30000
Dipeptidyl peptidase 2
  IC50: 4.2 nM

## CC1CCN(C(=O)[C@@H](N)CCNCc2ccc(Cl)cc2)CC1
Dipeptidyl peptidase 4
  IC50: > 500 µM
[1]
  SI: > 910000
Dipeptidyl peptidase 2
  IC50: 0.55 nM

## CC1CCCCN1C(=O)[C@@H](N)CCNCc1ccc(Cl)cc1 (stereo partly drawn)
Dipeptidyl peptidase 4
  IC50: > 500 µM
[1]
  SI: > 220000
Dipeptidyl peptidase 2
  IC50: 2.3 nM

## CC(=O)NCC[C@H](N)C(=O)N1CCCCC1
Dipeptidyl peptidase 4
  IC50: 518 µM
Dipeptidyl peptidase 2
  IC50: 1.5 nM

## N[C@@H](CCNCc1ccccc1Cl)C(=O)N1CCCCC1
Dipeptidyl peptidase 4
  IC50: 345 µM
[1]
  SI: 1.5e+06
Dipeptidyl peptidase 2
  IC50: 0.23 nM

## N[C@@H](CCNCc1ccc(Cl)cc1)C(=O)N1CCC(F)CC1
Dipeptidyl peptidase 4
  IC50: 70 µM
[1]
  SI: 180000
Dipeptidyl peptidase 2
  IC50: 0.39 nM

## N[C@@H](CCNCc1ccncc1)C(=O)N1CCCCC1
Dipeptidyl peptidase 4
  IC50: 125 µM
[1]
  SI: 170000
Dipeptidyl peptidase 2
  IC50: 0.75 nM

## N[C@@H](CCNC(=O)c1ccccc1)C(=O)N1CCCCC1
Dipeptidyl peptidase 4
  IC50: 418 µM
Dipeptidyl peptidase 2
  IC50: 7.4 nM

## N#CC1CCCCN1C(=O)[C@@H](N)CCNCc1ccccc1 (stereo partly drawn)
Dipeptidyl peptidase 4
  IC50: 68 µM
[1]
  SI: 17000
Dipeptidyl peptidase 2
  IC50: 4 nM

## N#C[C@@H]1CCCCN1C(=O)[C@@H](N)CCN
Dipeptidyl peptidase 4
  IC50: 151 µM
[1]
  SI: 4000
Dipeptidyl peptidase 2
  IC50: 38 nM

## N[C@@H](CCNCc1ccccc1)C(=O)N1CCCCC1
Dipeptidyl peptidase 4
  IC50: 247 µM
[1]
  SI: 120000
Dipeptidyl peptidase 2
  IC50: 2.03 nM

## N[C@@H](CCNc1ccccc1)C(=O)N1CCCCC1
Dipeptidyl peptidase 4
  IC50: 250 µM
Dipeptidyl peptidase 2
  IC50: 1.5 nM

## COc1ccccc1CNCC[C@H](N)C(=O)N1CCCCC1
Dipeptidyl peptidase 4
  IC50: > 500 µM
[1]
  SI: > 270000
Dipeptidyl peptidase 2
  IC50: 185 nM

## N[C@@H](CCNCc1cccs1)C(=O)N1CCCCC1
Dipeptidyl peptidase 4
  IC50: 278 µM
[1]
  SI: 350000
Dipeptidyl peptidase 2
  IC50: 0.8 nM

## N[C@@H](CCNC1CCNCC1)C(=O)N1CCCCC1
Dipeptidyl peptidase 4
  IC50: 64 µM
[1]
  SI: 750
Dipeptidyl peptidase 2
  IC50: 85 nM

## N#Cc1cccc(CNCC[C@H](N)C(=O)N2CCCCC2)c1
Dipeptidyl peptidase 4
  IC50: 132 µM
[1]
  SI: 50000
Dipeptidyl peptidase 2
  IC50: 2.7 nM

## N[C@@H](CCNCc1ccccc1OCc1ccccc1)C(=O)N1CCCCC1
Dipeptidyl peptidase 4
  IC50: > 500 µM
[1]
  SI: > 1.3e+06
Dipeptidyl peptidase 2
  IC50: 0.39 nM

## N[C@@H](CCN(Cc1ccccc1)Cc1ccccc1)C(=O)N1CCCCC1
Dipeptidyl peptidase 4
  IC50: 266 µM
[1]
  SI: 440000
Dipeptidyl peptidase 2
  IC50: 0.6 nM

## N[C@@H](CCNCc1ccc(Cl)cc1)C(=O)N1CC=CCC1
Dipeptidyl peptidase 4
  IC50: 148 µM
[1]
  SI: 130000
Dipeptidyl peptidase 2
  IC50: 1.1 nM
